Source: US8257725B2, “Delivery of highly lipophilic agents via medical devices” (Abbott Laboratories, priority 1997, dated 2012)
Values belong to the molecule of their own block, whether it stands above or below them.

Legend:
[1] = Octanol/water partition coefficient, shake-flask method; type: physicochemical; conditions: for transfer coefficient (P divided by S), order: FIG. 21, S = equilibrium aqueous solubility (μg/ml); for lipophilicity (partition coefficient octanol/water): n-octanol/buffered water
Protocol: “Solubility” is based on a standard measure used in medicinal chemistry. The octanol-water partition coefficient (P) is the ratio of distribution of a compound in a mixture of 1-octanol and H2O. LogP is the base 10 logarithm of the partition coefficient.
In the measurement of the partition coefficient (octanol/water), preliminary studies were conducted to determine the optimum drug concentration for each test, and the appropriate time for establishing the partition equilibrium. All experiments were carried out by two different analysts and on multiple drug lots.
A transfer coefficient, τ, can be defined as P divided by S, where P equals the partition coefficient and S equals theequilibrium aqueous solubility, (μg/ml) as shown in FIG. 21. […] Where S equals the equilibrium aqueous solubility of the amorphous form of the drug were possible.

[2] = Pig model, zotarolimus concentrations in tissues after ZoMaxx stents; type: in vivo; conditions: eluted from ZoMaxx stents, FIG. 25
[3] = representative summary for suitable beneficial agents; cited from earlier work
[4] = Pharmacokinetics after single intravenous dose in cynomolgus monkey; conditions: single 2.5 mg/kg intravenous dose
[5] = Six-hour elution from PC1036-coated coupons in pH 7.4 phosphate buffered saline; type: physicochemical; conditions: for amount released from the coupon: after six hours, PBS pH 7.4, 37° C.; for amount remaining on the coupon: six-hour elution
Protocol: Prior to any experimentation, coated stainless steel coupons were prepared. These coupons were 316L electropolished stainless steel discs (10 mm diameter). This size was chosen because the surface area of one side of the coupon is similar to the surface area of a 15-mm open cell BiodivYsio stent. […]. The cleaning was a two-step process in which the coupons are sonicated for 3 minutes in dichloromethylene and 3 minutes in ethanol. The coupons were allowed to dry at room temperature. One side of the coupon was coated using a filtered 20-mg/mL solution of phosphoryl choline polymer PC1036 (product of Biocompatibles Ltd., Famham, Surrey, UK) in ethanol. Twenty μL PC solution was placed onto the coupon using a gas tight glass syringe, ensuring that the entire surface was coated but not spilling over the sides of the coupon. The coupons were initially air dried and then cured at 70° C. for 16 hours. They were then sent for gamma irradiation at <25 KGy. The resulting PC coating thickness was close to that of the stent and thick enough to accommodate the desired loaded drug dose, as graphically represented in FIG. 9A-B. FIG. 9A-B is a top and side view of a coated stainless steel coupon 30, having a PC-coating 20 on a electropolished stainless steel disc.
In these experiments, beneficial agents were loaded onto coupons and elution profiles examined. In general, the procedure is as follows. Twelve PC-coated coupons were loaded with each drug. The solutions of the drugs were usually 5.0 mg/mL in 100% ethanol and were filtered with a 0.45 μm filter prior to use.
The coupons were weighed before loading with the drug solution. To load 100 μg of drug, 20 μL of solution was placed (e.g., pipetted) on the center of the PC coated side of the coupon. The coupon was placed in a vial for 30 minutes with the lid closed to allow the drug to penetrate the coating. The lid was removed and the coupon was allowed to dry for an additional 90 minutes. To ensure that the coupon was completely dry, the coupon was weighed, and after 15 minutes the coupon was weighed a third time. When two weightings of the coupon were the same, the coupon was considered dry. The loaded, dry coupons were stored in a refrigerator protected from light.
Six coated coupons of each drug were used for the elution experiments. The coupons were individually placed, coating side up, in small metal cups to hold the coupon and to allow movement to a new vial at each time point. The coupons were usually placed in a vial containing 10 mL of pH 7.4 phosphate buffered saline. The vials were stored in an orbital shaker, with horizontal shaking of 100 rpm, at 37° C. for at least 30 minutes before insertion of a coupon to allow the solution to equilibrate at the desired temperature. After the desired time had lapsed, the coupon holder was lifted and allowed to drain. It was then placed into a pre-warmed vial corresponding to the next time point. This procedure continued until the predetermined time had elapsed. At that point, the coupons went through a drug extraction step as outlined earlier. The amount of drug in the elution samples was determined by HPLC.

[6] = Stability of drug on PC-coated stents after ETO sterilization (HPLC); type: physicochemical
Protocol: In these experiments, beneficial agents were loaded onto stents and the stability of the two drugs was examined. In general, the procedure was as follows. Multiple PC-coated stents were loaded with each drug combination from solution. The solutions of the drugs were usually in the range of 2-20 mg/mL of zotarolimus and 10.0 mg/mL dexamethasone in 100% ethanol, with ˜10% PC1036 added to the solution to enhance film formation.
The stents were weighed before loading with the drug solution. To load approximately […] of each drug, a solution with equal amounts of zotarolimus and dexamethasone was sprayed onto the stent in a controlled fashion. The stent was allowed to dry before the stents were re-weighed to determine total drug load. The loaded, dry stents were stored in a refrigerator and were protected from light.
After drug loading, stents were crimped onto catheter balloons and packaged into medical product Tyvek pouches for ETO (ethylene oxide) sterilization. The ETO sterilization process is standard in the medical device industry to ensure product safety. […]
For each drug, multiple stents were used to evaluate the purity and stability of the drug loaded by the above procedure. […] The concentration and the presence of degradant-related impurities of the drug in the extraction solution were analyzed by HPLC.

[7] = Aqueous solubility, shake-flask method; conditions: amorphous DES drugs; dexamethasone crystalline
[8] = alone, in the absence of zotarolimus

lipophilicity (partition coefficient octanol/water) ([1]; shake-flask, FIG. 20): most lipophilic of all DES drugs tested | concentration in arterial tissue adjacent to the stent placement ([2]; all periods out to 28 days): substantial concentrations
Molecule: 3 S,6R,7E,9R,10R,12R,14S,15E,17E,19E,21S, 23S,26R,27R,34aS)-9,10,12,13,14,21,22,23,24,25,26,27,32,33,34,34a-Hexadecahydro-9,27-dihydroxy-3-[(1R)-2-[(1S,3R,4R)-3-methoxy-4-tetrazol-1-yl)cyclohexyl]-1-methylethyl]-10,21-dimethoxy-6,8,12,14,20,26-hexamethyl-23,27-epoxy-3H-pyrido[2,1-c][1,4]oxaazacyclohentriacontine-1,5,11,28,29(4H,6H,31H)-pentone [Zotarolimus]
transfer coefficient (P divided by S), order [1]: zotarolimus>>paclitaxel>>rapamycin>dexamethasone | lipophilicity relative to rapamycin ([1]; shake-flask, FIG. 20): more than two times as lipophilic as rapamycin | concentration in distal, unstented and subjacent myocardium and unstented and distal coronary arteries ([2]; throughout 28 days): therapeutically significant concentrations | LogP Values [3]: >4.5

t1/2 ([4]; terminal elimination half-life): 2.8 h
Molecule: 40-epi-N-[2′-pyridone]-rapamycin [Example 2-pyridone]

Molecule: CO[C@H]1C[C@@H]2CC[C@@H](C)[C@@](O)(O2)C(=O)C(=O)N2CCCC[C@H]2C(=O)O[C@H]([C@H](C)C[C@@H]2CC[C@H](n3ncnn3)[C@H](OC)C2)CC(=O)[C@H](C)/C=C(\C)[C@@H](O)[C@@H](OC)C(=O)[C@H](C)C[C@H](C)/C=C/C=C/C=C/1C (single isomer, unassigned; less polar) [Example 1, 42-Epi-(tetrazolyl)-rapamycin (less polar isomer)]
terminal elimination half-life (t1/2) compared to rapamycin [4]: substantially shorter

amount released from the coupon [5, 8]: 50% | amount released from the coupon ([5]; in the presence of zotarolimus): less than 10%
Molecule: CCCCN(CCCC)C(=O)CN1C[C@H](c2ccc3c(c2)OCO3)[C@@H](C(=O)O)[C@@H]1c1ccc(OC)cc1 [ABT-627, atrasentan]

degradation in the ETO sterilization environment ([6]; dexamethasone-only coating): degraded | degradation in the ETO sterilization environment ([6]; loaded in combination with zotarolimus, 1-to-1 ratio): did not degrade | amount remaining on the coupon ([5]; coupon containing dexamethasone and zotarolimus): ~70% | amount remaining on the coupon ([5]; no zotarolimus present): 25%
Molecule: C[C@@H]1C[C@H]2[C@@H]3CCC4=CC(=O)C=C[C@]4(C)[C@@]3(F)[C@@H](O)C[C@]2(C)[C@@]1(O)C(=O)CO [Dexamethasone]
LogP Values [3]: ~1.9–2.2 | Aqueous solubility, increasing order [7]: paclitaxel, zotarolimus, rapamycin, and dexamethasone (crystalline)

amount released from the coupon [5, 8]: ~90% | amount released from the coupon ([5]; in the presence of zotarolimus): about 52%
Molecule: OCCN(CCO)c1nc(N2CCCCC2)c2nc(N(CCO)CCO)nc(N3CCCCC3)c2n1 [Dipyridamole]

Molecule: CC(=O)O[C@H]1C(=O)[C@@]2(C)[C@H]([C@H](OC(=O)c3ccccc3)[C@]3(O)C[C@H](OC(=O)[C@H](O)[C@@H](NC(=O)c4ccccc4)c4ccccc4)C(C)=C1C3(C)C)[C@]1(OC(C)=O)CO[C@@H]1C[C@@H]2O [Paclitaxel]
transfer coefficient (P divided by S), order [1]: zotarolimus>>paclitaxel>>rapamycin>dexamethasone | Aqueous solubility, increasing order [7]: paclitaxel, zotarolimus, rapamycin, and dexamethasone (crystalline)

Molecule: CO[C@H]1C[C@@H]2CC[C@@H](C)[C@@](O)(O2)C(=O)C(=O)N2CCCC[C@H]2C(=O)O[C@H]([C@H](C)C[C@@H]2CC[C@@H](O)[C@H](OC)C2)CC(=O)[C@H](C)/C=C(\C)[C@@H](O)[C@@H](OC)C(=O)[C@H](C)C[C@H](C)/C=C/C=C/C=C/1C [Rapamycin]
transfer coefficient (P divided by S), order [1]: zotarolimus>>paclitaxel>>rapamycin>dexamethasone | lipophilicity (partition coefficient octanol/water) ([1]; shake-flask, FIG. 20): most lipophilic compounds in the group tested | LogP Values [3]: >4.5 | Aqueous solubility, increasing order [7]: paclitaxel, zotarolimus, rapamycin, and dexamethasone (crystalline)
